Source: US4190657A, “Naphthyridine derivatives” (Synthelabo, priority 1976, dated 1980)
Where two headings read alike, the source gives them in different places.

Key:
mice of strain CD 1 = test: acute toxicity, 50 percent lethal dose (LD50), graphical method; format: in vivo; details: mice CD 1, intraperitoneal; Table II
Experimental: (§1) The 50 percent lethal dose (LD50) of the compounds is determined for mice of strain CD 1 by a graphical method.
(§2) The results are indicated in Table II below, for a representative number of compounds.

mice of the CD 1 strain = test: anoxia due to pressure reduction, survival time, mean active dose (MAD); format: in vivo, mice (CD 1 strain); details: mice CD 1, intraperitoneal, 10 minutes before the experiment, 190 mm of mercury, Table II; for ED (100% increase in survival time): Mus musculus, ip, read-out: ANOXIA DUE TO PRESSURE REDUCTION, mean active dose (MAD), dose which increases the survival time by 100%
Experimental: Mice of the CD 1 strain are kept in an atmosphere depleted in oxygen, by setting up a partial vacuum (190 mm. of mercury, corresponding to 5.25% of oxygen).
The survival time of the animals is noted. This time is increased by the agents capable of favouring oxygenation in the tissues and, in particular, in the brain. The compounds studied are administered intraperitoneally in several doses 10 minutes before the experiment. The percentage increases of the survival time relative to the values obtained with control animals are calculated. The mean active dose (MAD), namely the dose which increases the survival time by 100%, is determined graphically.
The results are indicated in Table II below for a representative number of compounds.

[1] = test system: curarised rats ("sleep" induced by sodium 4-hydroxy-butyrate); test: action on the duration of the "sleep" induced by sodium 4-hydroxy-butyrate (GHB) in curarised rats; format: in vivo, rats (male, Charles River strain); details: for TOTAL DURATION of the "sleep" / change in vivo at 10 mg/kg / change in vivo at 30 mg/kg: GHB 200 mg/kg i.v.; for TOTAL DURATION of the "sleep": over 75 minutes, comparison 54.12 ± 2.07; for change in vivo at 10 mg/kg / change in vivo at 30 mg/kg: read-out: DIFFERENCE IN % RELATIVE TO THE CONTROLS (total duration of the "sleep")
Experimental: This action was determined from the influence of the compounds on the duration of the "sleep" induced by sodium 4-hydroxy-butyrate (GHB) in curarised rats.
The animals used are male rats of the Charles River strain, weighing 200±20 g. The animals, curarised by alloferin given intraperitoneally at the rate of 1 mg/kg, are placed under artificial respiration by means of a mask applied over the snout (respiration frequency: 40/minute; volume respired: 14 cc). The oesophagus is ligatured beforehand so as to avoid air entering the stomach.
Fronto-parietal and occipital cortical electrodes make it possible to record the electrocorticographic activity on a Grass model 79P polygraph at a speed of 6 mm/sec. The animals are prepared under local anaesthesia (2% xylocaine). The rats are kept at a constant temperature (37.5° C.) throughout the experiment. Ten minutes after the end of the preparation of the rat, a dose of 200 mg/kg of Na 4-hydroxybutyrate is injected intravenously into the tail. […]
The traces are evaluated for periods of 15 minutes over the course of 75 minutes after the injection of "GHB". During this period of analysis, the total duration of the "sleep" is determined. A series of 15 comparisons makes it possible precisely to define the duration of the "GHB sleep".
The statistical analysis of the results is carried out with the aid of the Mann-Whitney "U" test.

[2] = acute toxicity, 50 percent lethal dose (LD50), graphical method; details: mouse, in vivo, Table III
[3] = as above; format: in vivo; details: mouse, in vivo, ip, mice CD 1, intraperitoneal; Table II; read-out: ACUTE TOXICITY LD50 for intraperitoneal administration
Experimental: as §1, §2

[4] = Rattus norvegicus, ip, 1.25 h, 10 mg/kg intraperitoneally
[5] = ip, intraperitoneal, read-out: TOXICITY intraperitoneal
[6] = Rattus norvegicus, ip, 1.25 h, read-out: […] % RELATIVE TO THE CONTROLS (total duration of the "sleep"), 30 mg/kg intraperitoneally
[7] = Rattus norvegicus, ip, 1.25 h, 30 mg/kg intraperitoneally
[8] = iv, read-out: TOXICITY intravenous
[9] = Rattus norvegicus, ip, 1.25 h, read-out: […] % RELATIVE TO THE CONTROLS (total duration of the "sleep"), 10 mg/kg intraperitoneally

Structure (SMILES)	LD50 [2, 5]	LD50 [3]	ED (100% increase in survival time) (mice of the CD 1 strain)	TOTAL DURATION of the "sleep" ([1]; 30 mg/kg intraperitoneally)	also measured
CN1CCc2c3n(c4ccccc24)C(=O)CCC31 (stereo not shown) [2 (m.s.), 1,2,3,3a,4,5-Hexahydro-3-methyl-6H-indolo[3,2,1-de][1,5]naphthyridin-6-one]	–	–	–	–	ACUTE TOXICITY LD50 for intraperitoneal administration (mice of strain CD 1): 52 mg/kg; ANOXIA DUE TO PRESSURE REDUCTION, mean active dose (MAD), dose which increases the survival time by 100% (mice of the CD 1 strain): 4.5
Cc1ccc2c3c4n(c2c1)C(=O)CCC4N(C)CC3 (stereo not shown) [Compound 69]	88 mg/kg	–	–	–	TOTAL DURATION of the "sleep" ([1]; 10 mg/kg intraperitoneally): 29.46 ± 1.27 minutes. seconds; change in vivo at 10 mg/kg [1, 4]: -45%
CCN1CCc2c3n(c4ccccc24)C(C)(O)CCC31 (stereo not shown) [Compound 21]	–	75 mg/kg	7 mg/kg	–	–
CCCN1CCc2c3n(c4ccccc24)C(C)(O)CCC31 (stereo not shown) [Compound 22]	–	105 mg/kg	8 mg/kg	–	–
CC(O)CCN1CCc2c3n(c4ccccc24)C(=O)CCC31 (single isomer, unassigned) [35 (base, isomer A)]	–	150 mg/kg	9 mg/kg	–	–
COC(=O)[C@@H]1CC(=O)n2c3c(c4cc(Cl)ccc42)CCN[C@H]31 (relative stereo) [Compound 58 trans-isomer]	170 mg/kg	–	–	31.12 ± 2.18 minutes. seconds	change in vivo at 30 mg/kg [1, 6]: -42%
CC(=O)CCN1CCc2c3n(c4ccccc24)C(=O)CCC31 (stereo not shown) [Compound 33]	–	170 mg/kg	8 mg/kg	–	–
CCN1CCc2c3n(c4ccccc24)C(C)=CCC31 (stereo not shown) [Compound 26]	–	67 mg/kg	10 mg/kg	–	–
COC(=O)C1CC(=O)n2c3c(c4cc(Cl)ccc42)CCNC31 (stereo not shown) [Compound 51]	760 mg/kg	–	–	37.51 ± 2.12 minutes. seconds	change in vivo at 30 mg/kg [1, 6]: -30%
CCN1CCc2c3n(c4ccccc24)C(=O)CCC31 (stereo not shown) [Compound 3]	–	58 mg/kg	9 mg/kg	–	–
CC1=CCC2c3c(c4ccccc4n31)CCN2C (stereo not shown) [Compound 9, 1,2,3,3a-Tetrahydro-3,6-dimethyl-4H-indolo[3,2,1-de][1,5]naphthyridine]	–	78 mg/kg	6.5 mg/kg	–	–
O=C1CCC2NCCc3c2n1c1cccc(Cl)c31 (stereo not shown) [Compound 65]	54 mg/kg	–	–	–	TOTAL DURATION of the "sleep" ([1]; 10 mg/kg intraperitoneally): 34.51 ± 1.42 minutes. seconds; change in vivo at 10 mg/kg [1, 4]: -36%
O=C1CCC2NCCc3c2n1c1ccc(Cl)cc31 (stereo not shown) [Compound 52]	–	165 mg/kg	9.5 mg/kg	32.35 ± 5.02 minutes. seconds	TOTAL DURATION of the "sleep" ([1]; 10 mg/kg intraperitoneally): 37.34 ± 3.35 minutes. seconds; change in vivo at 10 mg/kg [1, 4]: -31%; change in vivo at 30 mg/kg [1, 7]: -40%; LD50 [2, 8]: 110 mg/kg
COC(=O)[C@@H]1CC(=O)n2c3c(c4cc(Cl)ccc42)CCN[C@@H]31 (relative stereo) [Compound 58 cis-isomer]	190 mg/kg	–	–	36.08 ± 2.47 minutes. seconds	change in vivo at 30 mg/kg [1, 6]: -33%
COc1ccc2c(c1)c1c3n2C(=O)CCC3N(C)CC1 (stereo not shown) [Compound 38]	–	65 mg/kg	8 mg/kg	–	–
CC(O)CN1CCc2c3n(c4ccccc24)C(=O)CCC31 (single isomer, unassigned) [Compound 63 isomer A]	125 mg/kg	–	–	34.52 ± 2.14 minutes. seconds	change in vivo at 30 mg/kg [1, 7]: -36%; LD50 [2, 8]: 75 mg/kg
O=C1CCC2NCCc3c2n1c1ccc(F)cc31 (stereo not shown) [Compound 54]	100 mg/kg	–	–	28.28 ± 4.28 minutes. seconds	TOTAL DURATION of the "sleep" ([1]; 10 mg/kg intraperitoneally): 40.01 ± 5.00 minutes. seconds; change in vivo at 10 mg/kg [1, 4]: -26%; change in vivo at 30 mg/kg [1, 7]: -47%
CN1CCc2c3n(c4ccc(Cl)cc24)C(=O)CCC31 (stereo not shown) [Compound 53]	–	150 mg/kg	8 mg/kg	–	–
CCN1CCc2c3n(c4ccccc24)C(C)CCC31 (stereo not shown) [28 (m.s.)]	–	40 mg/kg	4.5 mg/kg	–	–
CC(=O)CCN1CCc2c3n(c4ccc(Cl)cc24)C(=O)CCC31 (stereo not shown) [Compound 56]	575 mg/kg	–	–	30.39 ± 3.01 minutes. seconds	TOTAL DURATION of the "sleep" ([1]; 10 mg/kg intraperitoneally): 43.07 ± 3.26 minutes. seconds; change in vivo at 10 mg/kg [1, 4]: -20%; change in vivo at 30 mg/kg [1, 7]: -43%
COC(=O)CCN1CCc2c3n(c4ccccc24)C(=O)CCC31 (stereo not shown) [Compound 19]	680 mg/kg	–	–	38.59 ± 1.20 minutes. seconds	change in vivo at 30 mg/kg [1, 7]: -28%; LD50 [2, 8]: 103 mg/kg
COC(=O)[C@@H]1CC(=O)n2c3c(c4ccccc42)CCN(C)[C@H]31 (relative stereo) [Compound 1 trans m.s., Methyl 1,2,3,3a,4,5-hexahydro-3-methyl-6-oxo-6H-indolo[3,2,1-de][1,5]naphthyridine-4-carboxylate]	185 mg/kg	–	–	–	TOTAL DURATION of the "sleep" ([1]; 40 mg/kg intraperitoneally): 32.01 ± 2.59 minutes. seconds; change in vivo at 40 mg/kg ([1]; Rattus norvegicus, ip, 1.25 h, read-out: […] % RELATIVE TO THE CONTROLS (total duration of the "sleep")): -41%; LD50 ([2]; intravenous, read-out: TOXICITY intravenous): 47 mg/kg
CC(=O)CN1CCc2c3n(c4ccccc24)C(=O)CCC31 (stereo not shown) [Compound 62]	–	190 mg/kg	10 mg/kg	–	–
COC(=O)[C@@H]1CC(=O)n2c3c(c4cc(F)ccc42)CCN(C)[C@@H]31 (relative stereo) [Compound 60 cis-isomer]	725 mg/kg	–	–	–	TOTAL DURATION of the "sleep" ([1]; 10 mg/kg intraperitoneally): 34.22 ± 2.47 minutes. seconds; change in vivo at 10 mg/kg [1, 9]: -37%
Cc1ccc2c(c1)c1c3n2C(=O)CCC3NCC1 (stereo not shown) [Compound 11]	155 mg/kg	–	–	34.08 ± 1.21 minutes. seconds	change in vivo at 30 mg/kg [1, 7]: -37%; LD50 [2, 8]: 105 mg/kg
CC1CCC2c3c(c4ccccc4n31)CCN2C (stereo not shown) [Compound 10]	–	50 mg/kg	6.5 mg/kg	–	–
CN1CCc2c3n(c4ccccc24)C(=O)CCC31 (stereo not shown) [Compound 2 (base), 1,2,3,3a,4,5-Hexahydro-3-methyl-6H-indolo[3,2,1-de][1,5]naphthyridin-6-one]	–	85 mg/kg	6 mg/kg	–	–
CCOC(=O)[C@@H]1CC(=O)n2c3c(c4ccccc42)CCN(C)[C@@H]31 (relative stereo) [30 (m.s.)]	–	110 mg/kg	9 mg/kg	–	–
COC(=O)[C@@H]1CC(=O)n2c3c(c4ccccc42)CCN(C)[C@@H]31 (relative stereo) [1 (m.s.cis), Methyl 1,2,3,3a,4,5-hexahydro-3-methyl-6-oxo-6H-indolo[3,2,1-de][1,5]naphthyridine-4-carboxylate]	–	170 mg/kg	4 mg/kg	–	–
COC(=O)[C@@H]1CC(=O)n2c3c(c4ccccc42)CCN(CCC(C)=O)[C@@H]31 (relative stereo) [Compound 49 m.s.cis]	600 mg/kg	–	–	38.51 ± 3.12 minutes. seconds	TOTAL DURATION of the "sleep" ([1]; 10 mg/kg intraperitoneally): 35.22 ± 2.26 minutes. seconds; change in vivo at 10 mg/kg [1, 9]: -35%; change in vivo at 30 mg/kg [1, 6]: -28%
